Values quoted from earlier work in patent US6833085B2, “Agent for restricting elution of phosphorus, method for producing the same, and method of restricting elution of phosphorus in sludge” (priority 2003, dated 2004).
Like-named read-outs stand apart in the source and are kept apart here.

Conditions: for Amount of diluted phosphorus: aqueous solution added into sludge

O=[N+]([O-])[O-].O=[N+]([O-])[O-].[Ca+2] [Calcium nitrate, calcium nitrate]
Amount of diluted phosphorus (concentration 0.35%): 67 µg/L | Amount of diluted phosphorus (concentration 0.70%): 13 µg/L | Inhibition of elution of phosphorus (injecting a 0.7% aqueous solution): 98%

[Cl][Fe]([Cl])[Cl] [Ferric chloride, ferric chloride]
Amount of diluted phosphorus (concentration 0.16%): 234 µg/L | Amount of diluted phosphorus (concentration 0.32%): 402 µg/L

alum
Amount of diluted phosphorus (concentration 0.21%): 407 µg/L | Amount of diluted phosphorus (concentration 0.42%): 490 µg/L
